Here are results for six compounds from patent US20090012071A1, “4-SUBSTITUTED-1H-ISOTHIAZOLO[5,4-B][1,4]OXAZINO[2,3,4-IJ]QUINOLINE-7,8(2H,9H)-DIONES AND RELATED COMPOUNDS AS ANTI-INFECTIVE AGENTS” (priority 2007, published 2009).

As usually defined, the CC50 is the concentration giving 50% cytotoxicity.

The test system of one series is E. coli ATCC 25922. The series can be described thus: Minimum inhibitory concentration (MIC) assay, broth microdilution. The series is classed as cell-based. As for the experimental part:
(§1) The antimicrobial activity of the compounds of the invention may be evaluated by a number of methods, including the following visual minimum inhibitory concentration (MIC) assay. This assay determines the minimum concentration of compound required to inhibit growth of a bacterial strain.
(§2) Whole-cell antibacterial activity is determined by broth microdilution using conditions recommended by the NCCLS (see National Committee for Clinical Laboratory Standards. 2001. Performance standards for antimicrobial susceptibility testing: 11th informational supplement. Vol. 21, no. 1, M100-S11. National Committee for Clinical Laboratory Standards, Wayne, Pa.). Test compounds are dissolved in DMSO and diluted 1:50 in Mueller-Hinton II broth (Becton-Dickinson) to produce a 256 μg/ml stock solution. In a 96-well microtiter plate, the compound solution is serially two-fold diluted in Mueller-Hinton II broth. After the compounds are diluted, a 50 μl aliquot of the test organism (˜1×10^6 cfu/mL) is added to each well of the microtiter plate. The final test concentrations ranges from 0.125-128 μg/mL. Inoculated plates are incubated in ambient air at 37° C. for 18 to 24 hours. […] The minimum inhibitory concentration (MIC) is determined as the lowest concentration of compound that inhibited visible growth of the test organism.

Series [1] relates to S. aureus ATCC 29213 (MSSA). The series is described as above. The series is classed as cell-based. To be noted: methicillan sufficient S. aureus. As for the experimental part: as §1, §2
For series [2], the system named is MRSA S. aureus (FQR700699). The description is as above. The series is classed as cell-based. The arrangement: MIC MRSA: unit not given beside the values. To be noted: for MIC MRSA: Table I. As to the method:
as §1
Whole-cell antibacterial activity is determined by broth microdilution using conditions recommended by the NCCLS (see National Committee for Clinical Laboratory Standards. 2001. Performance standards for antimicrobial susceptibility testing: 11th informational supplement. Vol. 21, no. 1, M100-S11. National Committee for Clinical Laboratory Standards, Wayne, Pa.). Test compounds are dissolved in DMSO and diluted 1:50 in Mueller-Hinton II broth (Becton-Dickinson) to produce a 256 μg/ml stock solution. In a 96-well microtiter plate, the compound solution is serially two-fold diluted in Mueller-Hinton II broth. After the compounds are diluted, a 50 μl aliquot of the test organism (˜1×10^6 cfu/mL) is added to each well of the microtiter plate. The final test concentrations ranges from 0.125-128 μg/mL. Inoculated plates are incubated in ambient air at 37° C. for 18 to 24 hours. The organisms selected for testing included laboratory strains S. aureus ATCC 29213 and E. coli ATCC 25922 (strains purchased from American Type Culture Collection, Manassas, Va.), S. aureus FQR700699, and Paeruginosa 27853. The minimum inhibitory concentration (MIC) is determined as the lowest concentration of compound that inhibited visible growth of the test organism.

Series [3] deals with Hep 2 (laryngeal carcinoma). Particulars: Hep 2 cells, positive control; cited from earlier work.
Series [4] deals with CHO (Chinese hamster ovary). To be noted: CHO cells, positive control; cited from earlier work.

With `C[C@H]1COc2c(N3CC[C@@H](C(C)(C)N)C3)c(F)cc3c(=O)c4c(=O)[nH]sc4n1c23` [Compound II, (S)-4-((R)-3-(2-aminopropan-2-yl)pyrrolidin-1-yl)-5-fluoro-1-methyl-1H-isothiazolo[5,4-B][1,4]oxazino[2,3,4-ij]quinoline-7,8(2H,9H)-dione], the “minimal inhibitory concentration (MIC)” value with E. coli ATCC 25922 came out at 0.062; in series [1] it was 0.016; in series [2] (methicillan resistant S. aureus) it was 0.125.

`CC(C)(C)c1ccc(C(O)CCCN2CCC(C(O)(c3ccccc3)c3ccccc3)CC2)cc1` (stereo not drawn) [Terfenadine]: the results for the CC50 in series [3] and in series [4] were 3 to 5 µM and 4.3 to 6.5 µM, respectively.

On to `C[C@H]1COc2c(N3CCN(C)CC3)c(F)cc3c(=O)c4c(=O)[nH]sc4n1c23` [compound 6, (S)-5-fluoro-1-methyl-4-(4-methylpiperazin-1-yl)-1H-isothiazolo[5,4-b][1,4]oxazino[2,3,4-ij]quinoline-7,8(2H,9H)-dione], for which the “MIC MRSA” value in series [2] came out at 4.

On to `C[C@H]1COc2c(N3CC[C@H](N)C3)c(F)cc3c(=O)c4c(=O)[nH]sc4n1c23` [compound 7, (S)-4-((S)-3-aminopyrrolidin-1-yl)-5-fluoro-1-methyl-1H-isothiazolo[5,4-b][1,4]oxazino[2,3,4-ij]quinoline-7,8(2H,9H)-dione], for which, in series [2], the “MIC MRSA” value was 1.

For the compound `C[C@H]1COc2c(N3CC[C@@H](CN)C3)c(F)cc3c(=O)c4c(=O)[nH]sc4n1c23` [compound 8, (S)-4-((S)-3-(aminomethyl)pyrrolidin-1-yl)-5-fluoro-1-methyl-1H-isothiazolo[5,4-b][1,4]oxazino[2,3,4-ij]quinoline-7,8(2H,9H)-dione], in series [2], the “MIC MRSA” value was 0.5.

Take `C[C@H]1COc2c(N3CCNCC3)c(F)cc3c(=O)c4c(=O)[nH]sc4n1c23` [compound 9, (S)-5-fluoro-1-methyl-4-(piperazin-1-yl)-1H-isothiazolo[5,4-b][1,4]oxazino[2,3,4-ij]quinoline-7,8(2H,9H)-dione]: in series [2], the “MIC MRSA” value is reported as 8.
